From ChEMBL document CHEMBL5727227, “N-((het) arylmethyl)-heteroaryl-carboxamides compounds as plasma kallikrein inhibitors” (2019) come the findings set out here.

The pIC50 is the IC50 on a negative log10 scale, so that one unit is a factor of ten. Read a high pIC50 as a low IC50.

pIC50: −log10 of the molar value.

This test deals with Plasma kallikrein (Homo sapiens, UniProt P03952). The test is described as follows: Inhibitory Activity In Vitro Assay : Plasma kallikrein inhibitory activity in vitro was determined using standard published methods. Human plasma kallikrein (Protogen) was incubated at 25° C. with the fluorogenic substrate H-DPro-Phe-Arg-AFC and various concentrations of the test compound. Residual enzyme activity (initial rate of reaction) was determined by measuring the change in […] and the IC50 value for the test compound was determined.
Plasma kallikrein, sequence (P03952 20-390 limits assumed): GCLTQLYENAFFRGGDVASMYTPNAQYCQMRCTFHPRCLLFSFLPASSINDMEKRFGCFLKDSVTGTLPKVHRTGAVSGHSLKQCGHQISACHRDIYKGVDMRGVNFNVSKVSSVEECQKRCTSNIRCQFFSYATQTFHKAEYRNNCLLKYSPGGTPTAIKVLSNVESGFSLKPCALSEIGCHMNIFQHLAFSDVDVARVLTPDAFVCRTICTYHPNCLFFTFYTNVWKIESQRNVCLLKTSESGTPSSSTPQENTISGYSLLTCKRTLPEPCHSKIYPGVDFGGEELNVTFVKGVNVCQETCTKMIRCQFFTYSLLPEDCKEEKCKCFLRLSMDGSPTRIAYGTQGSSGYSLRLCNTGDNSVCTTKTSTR
Plasma kallikrein, sequence (P03952 391-638 limits assumed): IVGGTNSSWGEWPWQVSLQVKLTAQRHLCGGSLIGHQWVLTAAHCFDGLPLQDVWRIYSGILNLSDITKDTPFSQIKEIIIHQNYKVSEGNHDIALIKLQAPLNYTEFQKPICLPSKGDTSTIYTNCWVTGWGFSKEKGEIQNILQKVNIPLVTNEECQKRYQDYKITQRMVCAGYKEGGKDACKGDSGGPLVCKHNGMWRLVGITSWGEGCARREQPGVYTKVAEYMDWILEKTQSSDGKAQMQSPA

`CCOc1cccc(CNC(=O)c2cn(Cc3ccc(Cn4cc(C)cn4)cc3)nc2C(F)(F)F)c1`: the pIC50 was 5.63.
